Measurements from ChEMBL document CHEMBL3044782, “Structure-activity relationships of derivatives of fusapyrone, an antifungal metabolite of Fusarium semitectum” (J Agric Food Chem, 2004).
Converted amounts (≈) assume the structure as drawn. The source made the active and inactive calls. No cut-off for these calls is given here.

Key:
Rhodotorula glutinis = assay: Antifungal activity against Rhodotorula glutinis assessed as growth inhibition at 50 ug/ml after 24 to 72 hr by broth dilution method; format: functional, organism-based
Botrytis cinerea [1] = assay: Antifungal activity against Botryotinia fuckeliana ITEM-966 after 48 hr by broth dilution method; format: functional; conditions: ITEM-966, 48 h
Botrytis cinerea [2] = assay: Antifungal activity against Botryotinia fuckeliana ITEM-966 after 24 hr by broth dilution method; format: functional; conditions: ITEM-966, 24 h
Botrytis cinerea [3] = assay: Antifungal activity against Botryotinia fuckeliana ITEM-966 after 72 hr by broth dilution method; format: functional; conditions: ITEM-966, 72 h
[4] = test system: Meyerozyma guilliermondii; assay: Antifungal activity against Meyerozyma guilliermondii assessed as growth inhibition at 50 ug/ml after 24 to 72 hr by broth dilution method; format: functional, organism-based
[5] = Toxicity against Artemia salina (brine shrimp) larvae after 24 hr; format: organism-based; conditions: in vivo
[6] = test system: Penicillium brevicompactum; assay: Antifungal activity against Penicillium brevicompactum Dierckx ITEM-449 after 72 hr by broth dilution method; format: functional; conditions: Dierckx ITEM-449, 72 h
Aspergillus parasiticus [7] = assay: Antifungal activity against Aspergillus parasiticus Speare ITEM-11 after 72 hr by broth dilution method; format: functional; conditions: Speare ITEM-11, 72 h
[8] = test system: Penicillium brevicompactum; assay: Antifungal activity against Penicillium brevicompactum Dierckx ITEM-449 after 24 hr by broth dilution method; format: functional; conditions: Dierckx ITEM-449, 24 h
[9] = test system: Penicillium brevicompactum; assay: Antifungal activity against Penicillium brevicompactum Dierckx ITEM-449 after 48 hr by broth dilution method; format: functional; conditions: Dierckx ITEM-449, 48 h
Aspergillus parasiticus [10] = assay: Antifungal activity against Aspergillus parasiticus Speare ITEM-11 after 24 hr by broth dilution method; format: functional; conditions: Speare ITEM-11, 24 h
Aspergillus parasiticus [11] = assay: Antifungal activity against Aspergillus parasiticus Speare ITEM-11 after 48 hr by broth dilution method; format: functional; conditions: Speare ITEM-11, 48 h

Row | Structure (SMILES) | growth inhibition (GI) (Rhodotorula glutinis) | MIC (Botrytis cinerea [1]) [µg/mL] | MIC (Botrytis cinerea [2]) [µg/mL] | MIC (Botrytis cinerea [3]) [µg/mL] | growth inhibition (GI) [4] | LC50 at 24 h [5] [µM] | MIC [6] [µg/mL] | MIC (Aspergillus parasiticus [7]) [µg/mL] | MIC [8] [µg/mL] | MIC [9] [µg/mL] | MIC (Aspergillus parasiticus [10]) [µg/mL] | MIC (Aspergillus parasiticus [11]) [µg/mL]
1 | CCCCCCC(C)CC(C)CC(CO)CC(C)CCC(O)C(C)(C)c1cc(O)c([C@@H]2O[C@H](CO)C[C@H](O)[C@H]2O)c(=O)o1 (stereo partly specified) | inactive | 50 (≈ 81.6 µM) | 50 (≈ 81.6 µM) | 50 (≈ 81.6 µM) | inactive | – | – | – | – | – | – | –
2 | CCCCCCC(C)C/C(C)=C\C(CO)CC(C)CCC(O)C(C)(C)c1cc(O)c([C@@H]2O[C@H](CO)C[C@H](O)[C@H]2O)c(=O)o1 (stereo partly specified) | inactive | 50 (≈ 81.9 µM) | 50 (≈ 81.9 µM) | 50 (≈ 81.9 µM) | inactive | – | – | – | – | – | – | –
3 | CCCCCCC(C)C/C(C)=C\C(/C=C(C)/C=C/C(O)C(C)(C)c1cc(OC)c([C@@H]2O[C@H](CO)C[C@H](O)[C@H]2O)c(=O)o1)CO (stereo partly specified) | inactive | 50 (≈ 80.5 µM) | 25 (≈ 40.3 µM) | 50 (≈ 80.5 µM) | inactive | – | – | – | – | – | – | –
4 | CCCCCCC(C)C/C(C)=C\C(/C=C(C)/C=C/C(OC(C)=O)C(C)(C)c1cc(=O)c([C@@H]2O[C@H](COC(C)=O)C[C@H](OC(C)=O)[C@H]2OC(C)=O)c(OC)o1)COC(C)=O (stereo partly specified) | inactive | – | – | – | inactive | 51.9 | – | – | – | – | – | –
5 | CCCCCCC(C)C/C(C)=C\C(/C=C(C)/C=C/C(OC(C)=O)C(C)(C)c1cc(OC)c([C@@H]2O[C@H](COC(C)=O)C[C@H](OC(C)=O)[C@H]2OC(C)=O)c(=O)o1)COC(C)=O (stereo partly specified) | inactive | – | – | – | inactive | 46.1 | – | – | – | – | – | –
6 | CCCCCCC(C)C/C(C)=C\C(C)/C=C(C)/C=C/C(OC(C)=O)C(C)(C)c1cc(OC(C)=O)c([C@@H]2O[C@H](COC(C)=O)C[C@H](OC(C)=O)[C@H]2OC(C)=O)c(=O)o1 (stereo partly specified) | inactive | – | – | – | inactive | 39.7 | – | – | – | – | – | –
7 | CCCCCCC(C)C/C(C)=C\C(/C=C(C)/C=C/C(OC(C)=O)C(C)(C)c1cc(OC(C)=O)c([C@@H]2O[C@H](COC(C)=O)C[C@H](OC(C)=O)[C@H]2OC(C)=O)c(=O)o1)COC(C)=O (stereo partly specified) | inactive | – | – | – | inactive | 85.6 | – | – | – | – | – | –
8 | CCCCCCC(C)C/C(C)=C\C(/C=C(C)/C=C/C(O)C(C)(C)c1cc(O)c(CCO)c(=O)o1)CO (stereo unspecified) | inactive | – | – | – | inactive | – | – | – | – | – | – | –
9 | Nc1c(Cl)cc([N+](=O)[O-])cc1Cl [ALLISAN] | – | 6.25 (≈ 30.2 µM) | 3.12 (≈ 15.1 µM) | 6.25 (≈ 30.2 µM) | – | – | > 25 | > 25 | 12.5 (≈ 60.4 µM) | 25 (≈ 121 µM) | > 25 | > 25
10 | CCCCNC(=O)n1c(NC(=O)OC)nc2ccccc21 [BENOMYL] | – | 0.19 (≈ 0.654 µM) | 0.19 (≈ 0.654 µM) | 0.19 (≈ 0.654 µM) | – | – | > 25 | > 25 | > 25 | > 25 | > 25 | > 25
11 | CCCCCCC(C)C/C(C)=C\C(C)/C=C(C)/C=C/C(O)C(C)(C)c1cc(O)c([C@@H]2O[C@H](CO)C[C@H](O)[C@H]2O)c(=O)o1 (stereo partly specified) [DEOXYNEOFUSAPYRONE] | inactive | 1.56 (≈ 2.64 µM) | 0.78 (≈ 1.32 µM) | 1.56 (≈ 2.64 µM) | inactive | 37.1 | 1.56 (≈ 2.64 µM) | 0.78 (≈ 1.32 µM) | 0.78 (≈ 1.32 µM) | 1.56 (≈ 2.64 µM) | 0.78 (≈ 1.32 µM) | 0.78 (≈ 1.32 µM)
12 | CCCCCCC(C)C/C(C)=C\C(/C=C(C)/C=C/C(O)C(C)(C)c1cc(O)c([C@@H]2O[C@H](CO)C[C@H](O)[C@H]2O)c(=O)o1)CO (stereo partly specified) [Fusapyrone] | inactive | 3.12 (≈ 5.14 µM) | 1.56 (≈ 2.57 µM) | 6.25 (≈ 10.3 µM) | inactive | > 200 | 6.25 (≈ 10.3 µM) | 12.5 (≈ 20.6 µM) | 0.78 (≈ 1.29 µM) | 3.12 (≈ 5.14 µM) | 6.25 (≈ 10.3 µM) | 6.25 (≈ 10.3 µM)
